In patent publication US12252524B2, “GIP/GLP1 co-agonist compounds” (Eli Lilly and Company, priority 2018, dated 2025):
Numbered stars: 1 amine (or outer) side, 2 acyl side, 3 side chain; on linkers, the order of the positions; unused ones are H or OH. Square brackets hold non-standard residues; d marks the D form. Side chains are listed from the residue outwards. Peptide text beside a SMILES is read from it. * marks the point of attachment. C20 diacid = O=C(O)CCCCCCCCCCCCCCCCCCC(=O)*; C18 diacid = O=C(O)CCCCCCCCCCCCCCCCC(=O)*; αMePhe(2-F) = C[C@](N)(Cc1ccccc1F)C(=O)O; γGlu = O=C(O)[C@H](CCC(=O)[*:2])N[*:1]; αMeF = C[C@](N)(Cc1ccccc1)C(=O)O; 4Pal = N[C@@H](Cc1ccncc1)C(=O)O; αMeL = CC(C)C[C@](C)(N)C(=O)O; Dab = NCC[C@H](N)C(=O)O; AEEA = NCCOCCOCC(=O)O; Aib = CC(C)(N)C(=O)O

Columns and labels:
[1] = target: human GLP-1 receptor (GLP-1R) (Homo sapiens, UniProt P43220); experiment: cAMP pharmacological functional assay in presence of casein, hGLP-1R; type: cell-based; conditions: HEK293 cells expressing hGLP-1R, 0.1% Casein, geometric mean; read-out: hGLP1R cAMP Rel EC50 nM (SEM, n)
Chain of human GLP-1 receptor (GLP-1R) (P43220 24-463): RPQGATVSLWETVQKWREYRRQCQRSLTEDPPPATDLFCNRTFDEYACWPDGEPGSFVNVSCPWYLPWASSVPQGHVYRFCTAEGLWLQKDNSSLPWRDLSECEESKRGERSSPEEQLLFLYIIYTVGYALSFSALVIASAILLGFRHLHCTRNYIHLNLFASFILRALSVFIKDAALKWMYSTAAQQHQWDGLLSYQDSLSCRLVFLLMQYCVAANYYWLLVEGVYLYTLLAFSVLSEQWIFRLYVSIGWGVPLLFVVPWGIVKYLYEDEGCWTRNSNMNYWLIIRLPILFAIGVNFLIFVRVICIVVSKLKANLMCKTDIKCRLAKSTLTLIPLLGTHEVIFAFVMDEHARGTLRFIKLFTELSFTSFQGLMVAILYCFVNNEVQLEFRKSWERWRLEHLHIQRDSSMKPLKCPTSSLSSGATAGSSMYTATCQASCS

human GIP receptor = target: T1, human GIP receptor (Homo sapiens, UniProt P48546); experiment: [125I]-GIP binding (SPA), human GIP receptor; conditions: read-out: hGIPR Ki, nM (SEM, n)
T1 construct: expressed in transfected cells; crude membranes
T1 sequence (P48546 22-466): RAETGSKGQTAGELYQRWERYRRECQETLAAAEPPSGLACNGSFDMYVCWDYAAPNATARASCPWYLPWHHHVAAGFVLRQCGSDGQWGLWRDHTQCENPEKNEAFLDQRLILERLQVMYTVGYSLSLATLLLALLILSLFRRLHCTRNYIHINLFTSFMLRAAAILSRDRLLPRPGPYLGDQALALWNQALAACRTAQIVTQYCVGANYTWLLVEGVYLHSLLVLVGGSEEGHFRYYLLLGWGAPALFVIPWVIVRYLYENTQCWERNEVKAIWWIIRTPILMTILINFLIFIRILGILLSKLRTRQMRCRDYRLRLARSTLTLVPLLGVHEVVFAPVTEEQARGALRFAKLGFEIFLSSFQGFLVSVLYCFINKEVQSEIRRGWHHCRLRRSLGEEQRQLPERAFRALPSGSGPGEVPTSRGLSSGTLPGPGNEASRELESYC
Experimental: (§1) Two methods are used for the preparation of crude cell membranes.
(§2) Method 1: Frozen cell pellets are lysed on ice in hypotonic buffer containing 50 mM Tris HCl, pH 7.5, and Roche Complete™ Protease Inhibitors with EDTA. The cell suspension is disrupted using a glass Potter-Elvehjem homogenizer fitted with a Teflon® pestle for 25 strokes. The homogenate is centrifuged at 4° C. at 1100×g for 10 minutes. The supernatant is collected and stored on ice while the pellets are resuspended in homogenization buffer and rehomogenized as described above. The homogenate is centrifuged at 1100×g for 10 minutes. The second supernatant is combined with the first supernatant and centrifuged at 35000×g for 1 hour at 4° C. The resulting membrane pellet is resuspended in homogenization buffer containing protease inhibitors at approximately 1 to 3 mg/mL, quick frozen in liquid nitrogen and stored as aliquots in a−80° C. freezer until use.
(§3) Method 2: Frozen cell pellets are lysed on ice in hypotonic buffer containing 50 mM Tris HCl, pH 7.5, 1 mM MgCl2, Roche Complete™ EDTA-free Protease Inhibitors and 25 units/ml DNAse I (Invitrogen). The cell suspension is disrupted using a glass Potter-Elvehjem homogenizer fitted with a Teflon® pestle for 20 to 25 strokes. The homogenate is centrifuged at 4° C. at 1800×g for 15 minutes. The supernatant is collected and stored on ice while the pellets are resuspended in homogenization buffer (without DNAse I) and rehomogenized as described above. The homogenate is centrifuged at 1800×g for 15 minutes. The second supernatant is combined with the first supernatant and centrifuged an additional time at 1800×g for 15 minutes. The overall supernatant is then centrifuged at 25000×g for 30 minutes at 4° C. The resulting membrane pellet is resuspended in homogenization buffer (without DNAse I) containing protease inhibitors at approximately 1 to 3 mg/mL and stored as aliquots in a−80° C. freezer until use.
The binding buffer contains 25 mM HEPES, pH 7.4, 2.5 mM CaCl2, 1 mM MgCl2, 0.1% (w/v) bacitracin, 0.003% (w/v) TWEEN©-20, and Roche Complete™ Protease Inhibitors without EDTA. Peptides and GIP are thawed and 3 fold serially diluted in 100% DMSO (10 point concentration response curves). […] Plates are sealed and mixed on a plate shaker (setting 6) for 1 minute and read with a PerkinElmer Trilux MicroBeta© scintillation counter after 2.5 to 12 hours of incubation/settling time at room temperature.
(§4) Data are analyzed using four-parameter (curve maximum, curve minimum, IC50, Hill slope) nonlinear regression routines (Genedata Screener, version 12.0.4, Genedata AG, Basal, Switzerland). […] Values for Ki are reported as the geometric mean, with error expressed as the standard error of the mean (SEM) and n is equal to the number of independent replicates (determined in assays performed on different days). […] The Ki Ratio is a rapid indication of the apparent affinity of a peptide compared to the native control peptide. […] SEM is only calculated when n=2 or greater non-qualified results exist. Means are expressed as GeoMetric means with the standard error of the mean (SEM) and the number of replicates (n) indicated in parenthesis.

[2] = target: T2, gastric inhibitory peptide receptor (GIPR) (Homo sapiens, UniProt P48546); experiment: cAMP pharmacological functional assay in presence of casein, hGIPR; type: cell-based; conditions: HEK293 cells expressing hGIPR, 0.1% Casein, geometric mean; read-out: hGIPR cAMP Rel EC50 nM (SEM, n)
T2 sequence (P48546 22-466): T1 sequence (P48546 22-466)

human GLP-1R = human GLP-1R (Homo sapiens, UniProt P43220); experiment: [125I]-GLP-1 binding (SPA), human GLP-1 receptor; parameters: expressed in transfected cells; crude membranes; conditions: read-out: hGLP1R Ki, (nM) (SEM, n)
Chain of human GLP-1R (P43220 24-463): as the sequence (P43220 24-463) above
Experimental: as §1, §2, §3
The binding buffer contains 25 mM HEPES, pH 7.4, 2.5 mM CaCl2, 1 mM MgCl2, 0.1% (w/v) bacitracin, 0.003% (w/v) TWEEN©-20, and Roche Complete™ Protease Inhibitors without EDTA.
as §4

human Gcg receptor = target: T3, human Gcg receptor (Homo sapiens, UniProt P47871); experiment: [125I]-Glucagon binding (SPA), human Gcg receptor; conditions: read-out: hGLcgR Ki, nM (SEM, n)
T3 construct: expressed in transfected cells; crude membranes
T3 sequence (P47871 26-477): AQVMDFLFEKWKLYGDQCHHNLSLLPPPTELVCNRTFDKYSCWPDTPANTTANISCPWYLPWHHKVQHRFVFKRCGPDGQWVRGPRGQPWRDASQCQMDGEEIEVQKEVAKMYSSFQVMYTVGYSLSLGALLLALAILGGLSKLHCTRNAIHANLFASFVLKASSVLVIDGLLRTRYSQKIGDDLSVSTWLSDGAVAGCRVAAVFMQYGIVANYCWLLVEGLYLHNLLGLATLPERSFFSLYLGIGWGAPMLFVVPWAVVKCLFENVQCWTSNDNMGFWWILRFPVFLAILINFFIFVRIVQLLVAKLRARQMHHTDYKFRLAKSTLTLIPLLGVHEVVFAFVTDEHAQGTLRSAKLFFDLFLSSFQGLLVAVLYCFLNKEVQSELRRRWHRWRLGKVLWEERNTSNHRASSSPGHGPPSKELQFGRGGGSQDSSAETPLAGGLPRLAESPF
Experimental: as §1, §2, §3
The human Gcg receptor binding assays are performed using a Scintillation Proximity Assay (SPA) format with wheat germ agglutinin (WGA) beads (Perkin Elmer). The binding buffer contains 25 mM 4-(2-hydroxyethyl)-1-piperazineethanesulfonic acid (HEPES), pH 7.4, 2.5 mM CaCl2, 1 mM MgCl2, 0.1% (w/v) bacitracin (Research Products), 0.003% (w/v) Polyoxyethylenesorbitan monolaurate (TWEEN©-20), and Roche Complete™ Protease Inhibitors without EDTA. […] Plates are sealed and mixed on a plate shaker (setting 6) for 1 minute and read with a PerkinElmer Trilux MicroBeta© scintillation counter after 12 hours of incubation/settling time at room temperature.
as §4

Row | SMILES | EC50 [1] | Ki (human GIP receptor) | EC50 [2] | Ki (human GLP-1R) | Ki (human Gcg receptor)
1 | CC[C@H](C)[C@H](NC(=O)[C@H](CC(C)C)NC(=O)[C@H](Cc1ccc(O)cc1)NC(=O)[C@H](CCC(=O)O)NC(=O)[C@@H](NC(=O)[C@H](Cc1ccccc1)NC(=O)[C@H](CCC(=O)O)NC(=O)C(C)(C)NC(=O)[C@H](CCC(N)=O)NC(=O)[C@H](C)NC(=O)[C@H](CCCCNC(=O)COCCOCCNC(=O)COCCOCCNC(=O)CC[C@H](NC(=O)CCCCCCCCCCCCCCCCC(=O)O)C(=O)O)NC(=O)[C@H](CCCCN)NC(=O)[C@H](CC(=O)O)NC(=O)[C@H](CC(C)C)NC(=O)[C@H](CC(C)C)NC(=O)[C@@H](NC(=O)[C@H](CO)NC(=O)[C@H](Cc1ccc(O)cc1)NC(=O)[C@H](CC(=O)O)NC(=O)[C@H](CO)NC(=O)[C@@H](NC(=O)[C@H](Cc1ccccc1)NC(=O)[C@@H](NC(=O)CNC(=O)[C@H](CCC(=O)O)NC(=O)C(C)(C)NC(=O)[C@@H](N)Cc1ccc(O)cc1)[C@@H](C)O)[C@@H](C)O)[C@@H](C)CC)[C@@H](C)CC)C(=O)N[C@@H](CCC(=O)O)C(=O)NCC(=O)NCC(N)=O [Example 271] (H-Y[Aib]EGTFTSDYSILLDKK([AEEA-AEEA-γGlu-C18 diacid])AQ[Aib]EFIEYLIEGG-NH2) | 0.0352 nM | 0.107 nM | 0.334 nM | 5.09 nM | > 1150 nM
2 | CC[C@H](C)[C@H](NC(=O)[C@H](CC(C)C)NC(=O)[C@H](Cc1ccc(O)cc1)NC(=O)[C@@H](CCC(=O)O)NC(=O)[C@@H](NC(=O)[C@H](Cc1ccccc1)NC(=O)[C@H](CCC(=O)O)NC(=O)C(C)(C)NC(=O)[C@H](CCC(N)=O)NC(=O)[C@H](C)NC(=O)[C@H](CCCCNC(=O)COCCOCCNC(=O)COCCOCCNC(=O)CC[C@H](NC(=O)CCCCCCCCCCCCCCCCC(=O)O)C(=O)O)NC(=O)[C@H](CCN)NC(=O)[C@H](CC(=O)O)NC(=O)[C@H](CC(C)C)NC(=O)[C@](C)(CC(C)C)NC(=O)[C@@H](NC(=O)[C@H](CO)NC(=O)[C@H](Cc1ccncc1)NC(=O)[C@H](CC(=O)O)NC(=O)[C@H](CO)NC(=O)[C@@H](NC(=O)[C@](C)(Cc1ccccc1)NC(=O)[C@@H](NC(=O)CNC(=O)[C@H](CCC(=O)O)NC(=O)C(C)(C)NC(=O)[C@@H](N)Cc1ccc(O)cc1)[C@@H](C)O)[C@@H](C)O)[C@@H](C)CC)[C@@H](C)CC)C(=O)N[C@@H](CCC(=O)O)C(=O)NCC(=O)NCC(=O)N1CCC[C@H]1C(=O)N[C@@H](CO)C(=O)N[C@@H](CO)C(=O)NCC(=O)N[C@@H](C)C(=O)N1CCC[C@H]1C(=O)N1CCC[C@H]1C(=O)N1CCC[C@H]1C(=O)N[C@@H](CO)C(N)=O [Example 235] (H-Y[Aib]EGT[αMeF]TSD[4Pal]SI[αMeL]LD[Dab]K([AEEA-AEEA-γGlu-C18 diacid])AQ[Aib]EFI[dE]YLIEGGPSSGAPPPS-NH2) | 0.136 nM | 0.0581 nM | 0.0372 nM | 7.65 nM | > 1200 nM
3 | CC[C@H](C)[C@H](NC(=O)[C@H](CC(C)C)NC(=O)[C@H](Cc1ccc(O)cc1)NC(=O)[C@@H](CCC(=O)O)NC(=O)[C@@H](NC(=O)[C@H](Cc1ccccc1)NC(=O)[C@H](CCC(=O)O)NC(=O)C(C)(C)NC(=O)[C@H](CCC(N)=O)NC(=O)[C@H](C)NC(=O)[C@H](CCCCNC(=O)COCCOCCNC(=O)COCCOCCNC(=O)CCCCCCCCCCCCCCCCC(=O)O)NC(=O)[C@H](CCC(=O)O)NC(=O)[C@H](CC(=O)O)NC(=O)[C@H](CC(C)C)NC(=O)[C@](C)(CC(C)C)NC(=O)[C@@H](NC(=O)[C@H](CO)NC(=O)[C@H](Cc1ccncc1)NC(=O)[C@H](CC(=O)O)NC(=O)[C@H](CO)NC(=O)[C@@H](NC(=O)[C@](C)(Cc1ccccc1F)NC(=O)[C@@H](NC(=O)CNC(=O)[C@H](CCC(=O)O)NC(=O)C(C)(C)NC(=O)[C@@H](N)Cc1ccc(O)cc1)[C@@H](C)O)[C@@H](C)O)[C@@H](C)CC)[C@@H](C)CC)C(=O)N[C@@H](CCC(=O)O)C(=O)NCC(=O)NCC(=O)N1CCC[C@H]1C(=O)N[C@@H](CO)C(=O)N[C@@H](CO)C(=O)NCC(=O)N[C@@H](C)C(=O)N1CCC[C@H]1C(=O)N1CCC[C@H]1C(=O)N1CCC[C@H]1C(=O)N[C@@H](CO)C(N)=O [Example 205] (H-Y[Aib]EGT[αMePhe(2-F)]TSD[4Pal]SI[αMeL]LDEK([AEEA-AEEA-C18 diacid])AQ[Aib]EFI[dE]YLIEGGPSSGAPPPS-NH2; N-terminus assumed) | 0.0261 nM | 0.0367 nM | 0.0281 nM | 3.05 nM | 438 nM
4 | CC[C@H](C)[C@H](NC(=O)[C@H](CC(C)C)NC(=O)[C@H](Cc1ccc(O)cc1)NC(=O)[C@H](CCC(=O)O)NC(=O)[C@@H](NC(=O)[C@H](Cc1ccccc1)NC(=O)[C@H](C)NC(=O)C(C)(C)NC(=O)[C@H](CCC(N)=O)NC(=O)[C@H](C)NC(=O)[C@H](CCCCNC(=O)COCCOCCNC(=O)COCCOCCNC(=O)CC[C@H](NC(=O)CCCCCCCCCCCCCCCCCCC(=O)O)C(=O)O)NC(=O)[C@H](CCCCN)NC(=O)[C@H](CC(=O)O)NC(=O)[C@H](CC(C)C)NC(=O)[C@H](CC(C)C)NC(=O)[C@@H](NC(=O)[C@H](CO)NC(=O)[C@H](Cc1ccc(O)cc1)NC(=O)[C@H](CC(=O)O)NC(=O)[C@H](CO)NC(=O)[C@@H](NC(=O)[C@H](Cc1ccccc1)NC(=O)[C@@H](NC(=O)CNC(=O)[C@H](CCC(=O)O)NC(=O)[C@@H]1CCCN1C(=O)[C@@H](N)Cc1ccc(O)cc1)[C@@H](C)O)[C@@H](C)O)[C@@H](C)CC)[C@@H](C)CC)C(=O)N[C@@H](CCC(=O)O)C(=O)NCC(=O)NCC(=O)N1CCC[C@H]1C(=O)N[C@@H](CO)C(=O)N[C@@H](CO)C(=O)NCC(=O)N[C@@H](C)C(=O)N1CCC[C@H]1C(=O)N1CCC[C@H]1C(=O)N1CCC[C@H]1C(=O)N[C@@H](CO)C(N)=O [Example 88] (H-YPEGTFTSDYSILLDKK([AEEA-AEEA-γGlu-C20 diacid])AQ[Aib]AFIEYLIEGGPSSGAPPPS-NH2) | 0.64 nM | 0.0717 nM | 0.475 nM | 4.24 nM | 545 nM
